We go through 21 molecules from publication PMC10619477 (RSC Advances, 2023).

Data set [1] in a line: ABTS radical cationic decolorization assay. In kind it is biochemical. The conditions noted are these: read-out: ABTS (IC50); concentration that inhibits 50% of free radicals, mean ± SEM.
Data set [2] is described as follows: DPPH radical scavenging assay. In kind it is biochemical. As to conditions: for IC50: read-out: DPPH (IC50), mean ± SEM, three determinations; for DPPH inhibiting rate: in the presence of 0.5 mM compounds. On the technique in general: Loss of DPPH colour is used to gauge radical scavenging.
A short description of the next data set: in vitro. The conditions noted are these: PAMPA.
For a further data set, the system named is SH-SY5Y cells. The conditions noted are these: MTT; for Cytotoxicity on SH-SY5Y cells (in words): 0–80 μM.
The conditions of data set [3]: from PAMPA-BBB Pe. On the technique in general: PAMPA measures passive passage across an artificial lipid membrane.
Data set [4] deals with intracellular GSH in H2O2-injured SY5Y cells. Briefly: Total glutathione. In kind it is cell-based, Human. The conditions noted are these: pretreatment with 10 μM, 100 μM H2O2.
In data set [5] the test system is SH-SY5Y cells exposed to 100 μM H2O2. Briefly: Protection of SH-SY5Y cells from H2O2-induced oxidative damage. In kind it is cell-based, Human.
Data set [6] relates to intracellular ROS in H2O2-injured SY5Y cells. The experiment in a line: Intracellular ROS levels. In kind it is cell-based, Human. As to conditions: 0.1, 1 or 10 μM, 100 μM H2O2 24 h, DCFH-DA.
Data set [7] relates to MMP in H2O2-incubated SY5Y cells. The experiment in a line: Mitochondrial membrane potential assay. The conditions noted are these: 10 μM, 100 μM H2O2 24 h, JC-1.

Marks after values point to notes of the source that are not given here.

As for “2-(3,4-Dimethoxyphenyl)-N-octylacetamide [Compound 3d]”, the values for the IC50 in [1] and in data set [2] were 24.3 ± 3.62 µM and 67.6 ± 4.74 µM, respectively.

Take `Cn1c(=O)c2c(ncn2C)n(C)c1=O` [Caffeine, reference compound]: in the data set “in vitro”, the Papp at 16 h, 100 mg mL^−1 worked out at 0.79 ± 0.1 ×10⁻⁶ cm/s.

For `COc1cc(CNC(=O)CCCC/C=C/C(C)C)ccc1O` [Compound 3a, capsaicin, reference compound], the values for the IC50 in data set [1] and in data set [2] were 16.9 ± 1.64 µM and 52.1 ± 3.21 µM, respectively.

Regarding `COc1cc(CNC(=O)CCCCCCC(C)C)ccc1O` [Compound 3b, Dihydrocapsaicin], the figures for the IC50 in [1] and in [2] were 11.3 ± 1.55 µM and 50.9 ± 4.08 µM, respectively. Moreover, the apparent permeability coefficient (Papp) at 16 h, 100 mg mL^−1 in the data set “in vitro” turned out to be 5.96 ± 0.78 ×10⁻⁶ cm/s.

As for `CC(C)CCCCCCC(=O)NCc1ccc(O)c(O)c1` [Compound 3c, N-(3,4-Dihydroxybenzyl)-8-methylnonanamide], the results for the IC50 in data set [1] and in data set [2] were 16.8 ± 2.1 µM and 7.33 ± 0.98 µM, respectively. Further, in the data set “in vitro”, the Papp at 16 h, 100 mg mL^−1 came to 8.45 ± 0.57 ×10⁻⁶ cm/s. Further, the “Cytotoxicity on SH-SY5Y cells (in words)” value with SH-SY5Y cells is listed as “strong growth inhibition”. In addition, in data set [3], the “Prediction (penetration into CNS)” value was “CNS+ (CNS+ is predicted as high BBB permeation with Pe (×10^−6 cm s^−1) > 4.33)”.

Consider `CCCCCCC(=O)NCc1ccc(OC)c(OC)c1` [Compound 3e, N-(3,4-Dimethoxybenzyl)heptanamide], for which the apparent permeability (Papp) at 16 h, 100 mg mL^−1 in the data set “in vitro” stood at 10.8 ± 1.03 ×10⁻⁶ cm/s. Besides, the “Prediction (penetration into CNS)” value in [3] was “CNS+ (CNS+ is predicted as high BBB permeation with Pe (×10^−6 cm s^−1) > 4.33)”. Also, in [2], the “DPPH radical scavenging activity (in words)” value is given as “little radical scavenging activities” and the DPPH inhibiting rate is listed as 27.33 ± 2.88% ^c.

On to `CCCCCCNC(=O)Cc1ccc(O)c(OC)c1` [Compound 3f, N-Hexyl-2-(4-hydroxy-3-methoxyphenyl)acetamide], for which the IC50 in data set [1] amounted to 13.1 ± 1.47 µM; in [2], 139 ± 6.89 µM. This molecule yielded a Papp at 16 h, 100 mg mL^−1 in the data set “in vitro” of 6.24 ± 0.98 ×10⁻⁶ cm/s. In addition, the “Prediction (penetration into CNS)” value in data set [3] is given as “CNS+ (CNS+ is predicted as high BBB permeation with Pe (×10^−6 cm s^−1) > 4.33)”.

On to `CCCCCCNC(=O)Cc1ccc(OC)c(OC)c1` [Compound 3g, 2-(3,4-Dimethoxyphenyl)-N-hexylacetamide], for which the Papp at 16 h, 100 mg mL^−1 in the data set “in vitro” was 11.2 ± 0.68 ×10⁻⁶ cm/s. The “Prediction (penetration into CNS)” value in data set [3] was “CNS+ (CNS+ is predicted as high BBB permeation with Pe (×10^−6 cm s^−1) > 4.33)”. In data set [2], the “DPPH radical scavenging activity (in words)” value was “little radical scavenging activities” and the DPPH inhibiting rate is listed as 12.76 ± 2.54% ^c.

As to `CCCCCCNC(=O)Cc1ccc(O)c(O)c1` [Compound 3h, 2-(3,4-Dihydroxyphenyl)-N-hexylacetamide], the results for the IC50 in data set [1] and in data set [2] were 18.6 ± 3.03 µM and 4.49 ± 0.74 µM, respectively. For the same molecule, the Papp at 16 h, 100 mg mL^−1 in “in vitro” was 7.68 ± 0.47 ×10⁻⁶ cm/s. Also, the “Prediction (penetration into CNS)” value in [3] is given as “CNS+ (CNS+ is predicted as high BBB permeation with Pe (×10^−6 cm s^−1) > 4.33)”.

With `CCCCCCCC(=O)NCc1ccc(O)c(OC)c1` [Compound 3i, N-(4-Hydroxy-3-methoxybenzyl) octanamide], the half-inhibitory concentration (IC50) is 13.6 ± 2.9 µM in data set [1] and 27.9 ± 4.55 µM in [2].

`CCCCCCCC(=O)NCc1ccc(OC)c(OC)c1` [Compound 3j, N-(3,4-Dimethoxybenzyl)octanamide]: in [2], the “DPPH radical scavenging activity (in words)” value is given as “little radical scavenging activities” and the DPPH inhibiting rate turned out to be 22.72 ± 5.47% ^c.

Consider `CCCCCCCC(=O)NCc1ccc(O)c(O)c1` [Compound 3k, N-(3,4-Dihydroxybenzyl)octanamide], for which, in [4], the “H2O2-induced decrease of intracellular GSH (in words)” value is recorded as “blocked”. In addition, the “cell viability under H2O2 (in words)” value in [5] (0.1, 1 or 10 μM pretreatment, 100 μM H2O2) is “increased dose-dependently”. Besides, in data set [5] (Homo sapiens, SH-SY5Y, read-out: cell viability), the viability at 10 µM is 90 ± 5.5%. The IC50 is 10.6 ± 1.28 µM in data set [1] and 5.06 ± 1.34 µM in data set [2]. The molecule further yielded a Papp at 16 h, 100 mg mL^−1 in “in vitro” of 9.23 ± 0.57 ×10⁻⁶ cm/s. Also, the “intracellular ROS fluorescence intensity (in words)” value in data set [6] is listed as “decreased gradually”. Further, the “Cytotoxicity on SH-SY5Y cells (in words)” value in the data set with SH-SY5Y cells was “little toxicity”. Moreover, the “H2O2-induced reduction of MMP (in words)” value in data set [7] is “blocked significantly”. Further, the “Prediction (penetration into CNS)” value in data set [3] was “CNS+ (CNS+ is predicted as high BBB permeation with Pe (×10^−6 cm s^−1) > 4.33)”.

On to `CCCCCCCCC(=O)NCc1ccc(O)c(OC)c1` [Compound 3l, N-(4-Hydroxy-3-methoxybenzyl)nonanamide], for which the IC50 came to 44.2 ± 4.65 µM in data set [1] and 27.2 ± 3.47 µM in [2].

As for `CCCCCCCCC(=O)NCc1ccc(OC)c(OC)c1` [Compound 3m, N-(3,4-Dimethoxybenzyl)nonanamide], the apparent permeability coefficient (Papp) at 16 h, 100 mg mL^−1 in “in vitro” is 10.6 ± 0.38 ×10⁻⁶ cm/s. Also, the “Prediction (penetration into CNS)” value in data set [3] was “CNS+ (CNS+ is predicted as high BBB permeation with Pe (×10^−6 cm s^−1) > 4.33)”. Besides, in [2], the “DPPH radical scavenging activity (in words)” value is recorded as “little radical scavenging activities” and the DPPH inhibiting rate is recorded as 18.56 ± 2.33% ^c.

On to `CCCCCCCCC(=O)NCc1ccc(O)c(O)c1` [Compound 3n, N-(3,4-Dihydroxybenzyl) nonanamide], for which the IC50 in [1] is 22.7 ± 2.34 µM; in data set [2], 5.91 ± 0.77 µM. For the same molecule, the apparent permeability (Papp) at 16 h, 100 mg mL^−1 in “in vitro” worked out at 10.1 ± 0.34 ×10⁻⁶ cm/s. In the data set on SH-SY5Y cells, the “Cytotoxicity on SH-SY5Y cells (in words)” value is given as “strong growth inhibition”. Besides, the “Prediction (penetration into CNS)” value in data set [3] is given as “CNS+ (CNS+ is predicted as high BBB permeation with Pe (×10^−6 cm s^−1) > 4.33)”.

For `CCCCCCCCNC(=O)Cc1ccc(O)c(OC)c1` [Compound 3o, 2-(4-Hydroxy-3-methoxyphenyl)-N-octylacetamide], the figures for the IC50 in [1] and in [2] were 30.9 ± 2.79 µM and 185 ± 9.86 µM, respectively.

`CCCCCCCCNC(=O)Cc1ccc(OC)c(OC)c1` [Compound 3p, 2-(3,4-Dimethoxyphenyl)-N-octylacetamide]: in data set [2], the “DPPH radical scavenging activity (in words)” value is on record as “little radical scavenging activities” and the DPPH inhibiting rate worked out at 30.48 ± 3.44% ^c.

`CCCCCCCCNC(=O)Cc1ccc(O)c(O)c1` [Compound 3q, 2-(3,4-Dihydroxyphenyl)-N-octylacetamide]: the IC50 is 21.6 ± 3.69 µM in data set [1] and 4.14 ± 1.09 µM in data set [2]. Moreover, the Papp at 16 h, 100 mg mL^−1 in “in vitro” was 6.54 ± 0.81 ×10⁻⁶ cm/s. In addition, the “Cytotoxicity on SH-SY5Y cells (in words)” value with SH-SY5Y cells is reported as “strong growth inhibition”. The “Prediction (penetration into CNS)” value in data set [3] is reported as “CNS+ (CNS+ is predicted as high BBB permeation with Pe (×10^−6 cm s^−1) > 4.33)”.

On to `OO` [Compound H2O2, H2O2, reference compound], for which the “cell viability of H2O2-treated SY5Y cells” value in data set [5] (100 μM H2O2 alone, compared with control (100%)) was 63.3 ± 4.5%. For the same molecule, the “inhibition in SH-SY5Y cells” value with SH-SY5Y cells (H2O2 at 100 μM) is 38.1 ± 7.6%. Also, the “effect on SH-SY5Y cell viability (in words)” value in the data set on SH-SY5Y cells (H2O2 at 25 and 50 μM) is on record as “no apparent inhibitory or promotive effects”.

In turn, `C[C@]12CC[C@@H]3c4ccc(O)cc4CC[C@H]3[C@@H]1CC[C@@H]2O` [Estradiol, reference compound] displayed an apparent permeability coefficient (Papp) at 16 h, 100 mg mL^−1 in “in vitro” of 13.2 ± 0.51 ×10⁻⁶ cm/s.

For `O=c1c(O)c(-c2ccc(O)c(O)c2)oc2cc(O)cc(O)c12` [Quercetin, reference compound], the results for the IC50 in data set [1] and in data set [2] were 13.8 ± 2.87 µM and 8.7 ± 1.75 µM, respectively.

A word on the IC50: it is the concentration at which inhibition is half-maximal. As usually defined, the Papp is a coefficient for how fast a substance crosses the barrier. Broadly, the viability is a per cent measure of how many cells are alive, often set against a control.
